Results on nine compounds are retold here after ChEMBL document CHEMBL5236554 (J Med Chem, 2021).

Series [1] concerns the target Neurolysin, mitochondrial (Rattus norvegicus, UniProt P42676). The series can be described thus: Activation of recombinant rat Neurolysin using QFS as substrate incubated for 10 mins. The conditions noted are these: for pEC50: read-out: EC50.
A short description of series [2]: Permeability coefficient across apical to basolateral side in mouse BEND3 cells co-cultured with mouse primary astrocytes incubated for 120 mins by LC-MS/MS analysis. The conditions noted are these: bend3, 2 h. The format is ADME, cell-based.
Series [3] in a line: Metabolic stability in mouse brain homogenate assessed as half life measured upto 240 mins by LC-MS/MS analysis. It is filed as ADME, tissue-based. To be noted: 4 h.
The nature of series [4]: Metabolic stability in mouse plasma assessed as half life measured upto 240 mins by LC-MS/MS analysis. The format is ADME, cell-free.
The target of series [5] is Neprilysin (Homo sapiens) (UniProt P08473). The series can be described thus: Inhibition of recombinant human NEP catalytic activity using Mca-Arg-Pro-Pro-Gly-Phe-Ser-Ala-Phe-Lys(Dnp)-OH as substrate.
Chain of Neprilysin (Homo sapiens) (P08473 whole entry): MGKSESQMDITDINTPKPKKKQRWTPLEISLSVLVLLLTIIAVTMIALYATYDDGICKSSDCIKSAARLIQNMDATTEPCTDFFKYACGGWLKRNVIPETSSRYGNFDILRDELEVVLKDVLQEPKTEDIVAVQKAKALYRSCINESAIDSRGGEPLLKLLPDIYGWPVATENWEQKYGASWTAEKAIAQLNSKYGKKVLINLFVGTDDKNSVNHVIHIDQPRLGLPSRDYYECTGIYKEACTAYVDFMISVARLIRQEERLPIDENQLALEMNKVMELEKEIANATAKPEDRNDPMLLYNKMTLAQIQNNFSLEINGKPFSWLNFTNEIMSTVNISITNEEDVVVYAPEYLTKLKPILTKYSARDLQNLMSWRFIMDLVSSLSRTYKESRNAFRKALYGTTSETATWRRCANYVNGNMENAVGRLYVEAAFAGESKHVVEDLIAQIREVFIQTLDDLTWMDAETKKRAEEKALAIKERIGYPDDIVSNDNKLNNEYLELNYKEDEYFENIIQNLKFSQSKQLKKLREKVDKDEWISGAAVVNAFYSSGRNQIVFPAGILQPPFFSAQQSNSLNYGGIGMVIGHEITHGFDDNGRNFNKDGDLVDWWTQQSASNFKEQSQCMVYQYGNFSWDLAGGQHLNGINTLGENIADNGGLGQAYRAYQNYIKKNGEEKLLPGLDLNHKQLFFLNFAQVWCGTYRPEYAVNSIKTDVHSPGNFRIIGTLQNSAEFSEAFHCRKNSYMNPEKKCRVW
In series [6] the target is Angiotensin-converting enzyme 2 (Homo sapiens) (UniProt Q9BYF1). The series can be described thus: Inhibition of recombinant human ACE2 catalytic activity at 300 uM using Mca-Ala-Pro-Lys-(Dnp)-OH as substrate.
Chain of Angiotensin-converting enzyme 2 (Homo sapiens) (Q9BYF1 18-805 limits assumed): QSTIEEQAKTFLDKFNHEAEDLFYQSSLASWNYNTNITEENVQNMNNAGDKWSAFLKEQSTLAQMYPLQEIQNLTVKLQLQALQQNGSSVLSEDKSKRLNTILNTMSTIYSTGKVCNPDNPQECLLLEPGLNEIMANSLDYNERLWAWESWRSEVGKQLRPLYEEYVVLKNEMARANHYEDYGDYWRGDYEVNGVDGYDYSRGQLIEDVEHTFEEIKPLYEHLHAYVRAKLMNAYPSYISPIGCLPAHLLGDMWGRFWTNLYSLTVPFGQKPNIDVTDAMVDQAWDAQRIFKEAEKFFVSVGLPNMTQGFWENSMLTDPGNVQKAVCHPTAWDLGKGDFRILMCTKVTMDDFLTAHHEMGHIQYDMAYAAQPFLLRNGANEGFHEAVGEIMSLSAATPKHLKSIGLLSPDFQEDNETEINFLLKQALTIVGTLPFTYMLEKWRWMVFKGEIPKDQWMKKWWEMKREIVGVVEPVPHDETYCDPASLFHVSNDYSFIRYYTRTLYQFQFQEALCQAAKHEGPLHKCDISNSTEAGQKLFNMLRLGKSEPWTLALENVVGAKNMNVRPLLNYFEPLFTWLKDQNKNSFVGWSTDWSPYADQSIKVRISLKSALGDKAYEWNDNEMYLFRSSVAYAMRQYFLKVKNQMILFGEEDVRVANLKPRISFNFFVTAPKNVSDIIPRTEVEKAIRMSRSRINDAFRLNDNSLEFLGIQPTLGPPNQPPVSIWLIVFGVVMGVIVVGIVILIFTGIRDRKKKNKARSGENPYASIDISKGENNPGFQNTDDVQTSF
In series [7] the target is Angiotensin-converting enzyme (Homo sapiens) (UniProt P12821). The series can be described thus: Inhibition of recombinant human ACE catalytic activity measured up to 150 uM.
Chain of Angiotensin-converting enzyme (Homo sapiens) (P12821 whole entry): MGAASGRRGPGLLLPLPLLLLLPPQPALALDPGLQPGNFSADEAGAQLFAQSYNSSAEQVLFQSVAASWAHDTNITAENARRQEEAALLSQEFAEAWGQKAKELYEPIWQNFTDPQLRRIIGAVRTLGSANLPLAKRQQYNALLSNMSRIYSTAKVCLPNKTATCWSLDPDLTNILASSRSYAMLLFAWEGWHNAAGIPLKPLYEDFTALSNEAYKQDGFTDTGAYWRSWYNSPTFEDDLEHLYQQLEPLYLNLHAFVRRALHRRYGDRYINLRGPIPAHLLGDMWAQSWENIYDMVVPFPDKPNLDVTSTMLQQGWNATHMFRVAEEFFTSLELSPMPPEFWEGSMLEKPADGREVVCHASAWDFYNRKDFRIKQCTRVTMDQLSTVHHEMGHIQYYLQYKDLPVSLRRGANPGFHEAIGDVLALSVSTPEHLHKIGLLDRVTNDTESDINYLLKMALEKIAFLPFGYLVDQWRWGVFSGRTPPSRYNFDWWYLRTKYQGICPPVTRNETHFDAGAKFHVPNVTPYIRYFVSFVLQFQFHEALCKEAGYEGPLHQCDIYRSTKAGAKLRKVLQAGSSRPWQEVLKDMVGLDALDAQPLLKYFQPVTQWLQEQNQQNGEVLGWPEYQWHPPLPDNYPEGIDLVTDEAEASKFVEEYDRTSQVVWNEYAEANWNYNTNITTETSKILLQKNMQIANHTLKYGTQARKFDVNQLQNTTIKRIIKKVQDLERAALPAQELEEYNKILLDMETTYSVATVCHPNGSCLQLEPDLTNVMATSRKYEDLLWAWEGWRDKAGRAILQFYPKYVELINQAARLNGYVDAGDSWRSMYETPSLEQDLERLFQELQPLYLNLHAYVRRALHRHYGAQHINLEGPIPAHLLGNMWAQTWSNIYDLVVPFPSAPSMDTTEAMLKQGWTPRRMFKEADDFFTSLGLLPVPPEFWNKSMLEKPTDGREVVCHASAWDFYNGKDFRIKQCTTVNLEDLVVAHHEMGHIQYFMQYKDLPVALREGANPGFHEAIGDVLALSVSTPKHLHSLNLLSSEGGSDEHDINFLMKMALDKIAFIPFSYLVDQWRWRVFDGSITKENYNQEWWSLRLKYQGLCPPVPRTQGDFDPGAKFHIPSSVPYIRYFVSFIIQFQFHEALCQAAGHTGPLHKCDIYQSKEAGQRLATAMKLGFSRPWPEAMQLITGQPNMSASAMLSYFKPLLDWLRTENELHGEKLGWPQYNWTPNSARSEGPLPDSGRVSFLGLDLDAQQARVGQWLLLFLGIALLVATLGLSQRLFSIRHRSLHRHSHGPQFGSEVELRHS
Series [8] concerns the target Thimet oligopeptidase (Homo sapiens) (UniProt P52888). The series can be described thus: Inhibition of recombinant human THOP catalytic activity using Mca-Pro-Leu-Gly-Pro-D-Lys(DNP)-OH as substrate.

pEC50: −log10 of the molar value. The source made the active and inactive calls. No cut-off for these calls is given here. Square brackets hold non-standard residues; d marks the D form. Peptide text beside a SMILES is read from it. * marks the point of attachment. Boc = CC(C)(C)OC(=O)*

Chain of Neurolysin, mitochondrial (P42676 whole entry): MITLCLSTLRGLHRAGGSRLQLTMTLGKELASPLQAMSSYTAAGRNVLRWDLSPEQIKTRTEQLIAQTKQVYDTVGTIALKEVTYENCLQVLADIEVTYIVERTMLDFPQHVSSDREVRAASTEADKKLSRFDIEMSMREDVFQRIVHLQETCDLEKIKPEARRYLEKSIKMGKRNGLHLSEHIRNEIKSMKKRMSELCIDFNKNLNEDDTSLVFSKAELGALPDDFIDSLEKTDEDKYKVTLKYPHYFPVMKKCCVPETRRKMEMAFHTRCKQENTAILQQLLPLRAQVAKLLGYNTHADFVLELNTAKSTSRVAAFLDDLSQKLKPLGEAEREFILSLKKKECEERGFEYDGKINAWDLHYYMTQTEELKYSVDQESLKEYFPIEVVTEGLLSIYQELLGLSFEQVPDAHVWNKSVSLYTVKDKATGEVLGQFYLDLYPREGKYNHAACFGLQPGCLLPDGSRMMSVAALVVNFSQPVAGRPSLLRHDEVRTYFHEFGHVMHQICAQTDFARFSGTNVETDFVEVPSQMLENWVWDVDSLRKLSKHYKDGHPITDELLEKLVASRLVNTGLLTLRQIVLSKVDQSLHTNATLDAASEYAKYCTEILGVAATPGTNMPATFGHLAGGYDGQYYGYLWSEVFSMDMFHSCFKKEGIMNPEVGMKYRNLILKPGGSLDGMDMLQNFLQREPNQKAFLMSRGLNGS
Chain of Thimet oligopeptidase (Homo sapiens) (P52888 whole entry): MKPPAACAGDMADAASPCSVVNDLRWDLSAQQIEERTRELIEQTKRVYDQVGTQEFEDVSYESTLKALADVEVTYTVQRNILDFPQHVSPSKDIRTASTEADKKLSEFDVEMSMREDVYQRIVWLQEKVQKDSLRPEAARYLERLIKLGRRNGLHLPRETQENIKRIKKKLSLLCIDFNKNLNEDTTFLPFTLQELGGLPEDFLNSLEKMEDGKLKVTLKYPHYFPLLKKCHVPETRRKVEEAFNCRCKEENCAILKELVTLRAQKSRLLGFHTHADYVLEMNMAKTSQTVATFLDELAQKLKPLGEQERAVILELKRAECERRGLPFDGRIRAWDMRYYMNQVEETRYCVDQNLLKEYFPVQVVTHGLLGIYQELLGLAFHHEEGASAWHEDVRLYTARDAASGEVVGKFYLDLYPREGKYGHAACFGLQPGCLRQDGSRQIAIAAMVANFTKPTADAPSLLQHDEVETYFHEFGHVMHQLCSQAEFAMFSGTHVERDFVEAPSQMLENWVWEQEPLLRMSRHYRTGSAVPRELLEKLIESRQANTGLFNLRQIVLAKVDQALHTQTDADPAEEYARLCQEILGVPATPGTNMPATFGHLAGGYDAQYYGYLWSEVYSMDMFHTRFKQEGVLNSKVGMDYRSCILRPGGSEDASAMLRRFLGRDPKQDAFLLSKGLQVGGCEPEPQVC

In the case of `CC(C)(C)OC(=O)N[C@@H](Cc1c[nH]cn1)C(=O)NCCc1c[nH]c2ccccc12`, the EC50 entry in series [1] was “Not Active”. One may read the pEC50 as −log10 of the EC50, conventionally taken in molar units. As for `NC(Cc1c[nH]cn1)C(=O)NCc1cccc2cccnc12` (racemic), in series [1], the pEC50 is 5.24. For the compound `N[C@@H](Cc1c[nH]cn1)C(=O)N[C@@H](Cc1ccccc1)C(=O)O` (H-His-Phe-OH), the pEC50 in series [1] was 4.13.

Regarding `N[C@@H](Cc1c[nH]cn1)C(=O)N[C@@H](Cc1ccc(O)cc1)C(=O)O` (H-His-Tyr-OH), the Kp in series [2] was 0.21 10^-3cm/min. Besides, the t1/2 in series [3] is 1.03 min; in series [4] (4 h) it was 34.19 min. In the case of `CC(C)(C)OC(=O)N[C@@H](Cc1ccc(O)cc1)C(=O)N[C@H](Cc1ccccc1)C(=O)O` (Boc-Tyr-[dF]-OH), the EC50 entry in series [1] was “Not Active”. By half-life is commonly meant the time in which the quantity being followed falls by half. Consider `N[C@@H](Cc1c[nH]cn1)C(=O)NCc1cccc2ccccc12`, for which the inhibition result in series [5], in series [6], in series [7] and in series [8] was “inactive” throughout. In series [2], the Kp is 1.09 10^-3cm/min. The t1/2 in series [3] amounted to 80.3 min. The half-life in series [4] is more than 1000 min. As to `N[C@@H](Cc1ccc(O)cc1)C(=O)N[C@H](Cc1c[nH]cn1)C(=O)O`, the EC50 entry in series [1] was “Not Active”. As to `O=C(CCc1c[nH]cn1)NCCc1cc2ccccc2[nH]1`, the EC50 result in series [1] is “Not Active”. With `N[C@@H](Cc1c[nH]cn1)C(=O)NCCc1ccc(F)cc1`, the pEC50 in series [1] was 4.94.
